Assay [1] has as its target T1, G1 APOL1 (Homo sapiens, UniProt O14791, I384M/S342G).
T1 construct: expressed in transfected cells
T1 sequence (O14791 28-398 S342G/I384M): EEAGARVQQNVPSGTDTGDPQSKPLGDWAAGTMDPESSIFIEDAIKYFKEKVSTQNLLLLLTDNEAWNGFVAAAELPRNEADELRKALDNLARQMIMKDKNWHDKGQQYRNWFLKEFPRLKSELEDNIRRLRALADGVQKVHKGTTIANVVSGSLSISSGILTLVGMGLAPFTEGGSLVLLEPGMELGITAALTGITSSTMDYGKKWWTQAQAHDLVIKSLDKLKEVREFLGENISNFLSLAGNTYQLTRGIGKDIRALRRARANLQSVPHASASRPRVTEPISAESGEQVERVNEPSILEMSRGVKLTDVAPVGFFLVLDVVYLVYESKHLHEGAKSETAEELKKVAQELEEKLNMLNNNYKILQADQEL
Briefly: Acute APOL1 Thallium Assay with Inducible Stable Clones of HEK 293 Cells. Format: cell-based. The note with it: HEK 293 inducible stable clones, G1 APOL1; read-out: Thallium Assay (IC50). In outline: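 Pore activity was read as the fluorescence increase from Tl+ entering cells loaded with an AM-ester thallium indicator dye. The cells were tetracycline-inducible HEK293 T-Rex expressing G1 APOL1 (clone DC3.25), induced when plated at 26000 per well and incubated at 37° C.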

For assay [2], the target named is T2, APOL1 G1 Protein (Homo sapiens, UniProt O14791, I384M/S342G).
T2 sequence (O14791 28-398 S342G/I384M): T1 sequence (O14791 28-398 S342G/I384M)
Briefly: Trypanosoma brucei brucei Lysis Assay Using APOL1 Recombinant Protein (AlamarBlue viability). It is filed as cell-based. The note with it: read-out: Trypanosomal Assay (IC50). In outline: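 Lister 427 bloodstream-form trypanosomes seeded at 120,000 per well in phenol-red-free, serum-free medium and lysed with recombinant APOL1 variant protein. Viability read by AlamarBlue (resazurin) fluorescence. Percent viability relative to untreated wells, interpolated from a standard curve of seeded parasites.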
In general terms: Alamar Blue is a resazurin reagent that responds to reducing activity.

Where only a bound is given, the exact number is not on record here.

Drawing on US20230014907A1, “INHIBITORS OF APOL1 AND METHODS OF USING SAME” (Vertex Pharmaceuticals Incorporated, priority 2020, published 2023), this text covers IC50 for 48 compounds.

For the compound `CC1(NC(=O)CCc2c(-c3ccc(F)cc3)[nH]c3c(F)cc(F)cc23)CCOC1=O` (racemic) [Compound 105], the half-inhibitory concentration (IC50) was more than 1000 nM in assay [1] and 250 to 1000 nM in assay [2].
The like results for `O=C(CCc1c(-c2ccc(F)cc2)[nH]c2c(F)cc(F)cc12)NC(c1ccco1)C(F)(F)F` (stereo not drawn) [Compound 157] were, in that order, more than 1000 nM and more than 1000 nM.
Regarding `O=C(CCc1c(-c2ccc(F)cc2)[nH]c2ccc(F)cc12)NCC1COC1` [Compound 43], the 50% inhibitory concentration (IC50) in assay [1] and in assay [2] was more than 1000 nM throughout.
For the compound `CC(O)C(=O)NCCCc1c(-c2ccc(F)cc2)[nH]c2ccc(F)cc12` (racemic) [Compound 507], the concentration for half-maximal inhibition (IC50) was less than 250 nM in assay [1] and 250 to 1000 nM in assay [2].
The like results for `O=C(CCc1c(-c2ccc(F)cc2)[nH]c2ccc(F)cc12)N1CCC(O)C1` (stereo not drawn) [Compound 42] were, in that order, more than 1000 nM and more than 1000 nM.
The like results for `NC(=O)CNC(=O)CCc1c(-c2ccc(F)cc2)[nH]c2c(F)cc(F)cc12` [Compound 111] were, in that order, more than 1000 nM and more than 1000 nM.
The like results for `O=C(CCc1c(-c2ccc(F)cc2)[nH]c2ccc(F)cc12)N[C@H](CO)C(F)(F)F` [Compound 50] were, in that order, more than 1000 nM and more than 1000 nM.
In the case of `O=C(CCc1c(-c2ccc(F)cc2)[nH]c2ccc(F)cc12)N[C@@H]1CCC[C@H]1O` [Compound 48], the concentration for half-maximal inhibition (IC50) in assay [1] and in assay [2] was more than 1000 nM throughout.
Consider `CC(=O)NCCCc1c(-c2ccc(F)cc2)[nH]c2c(Cl)cccc12` [Compound 508, N-[3-[7-chloro-2-(4-fluorophenyl)-1H-indol-3-yl]propyl]acetamide], for which the IC50 in assay [1] and in assay [2] was 250 to 1000 nM each time.
In the case of `O=C(CCc1c(-c2ccc(F)cc2)[nH]c2c(F)cc(F)cc12)Nc1nnc(C(F)(F)F)o1` [Compound 148], the IC50 in assay [1] and in assay [2] was more than 1000 nM each time.
On to `CC1(O)CN(C(=O)CCc2c(-c3ccc(F)cc3)[nH]c3ccc(F)cc23)C1` [Compound 86], for which the concentration for half-maximal inhibition (IC50) in assay [1] and in assay [2] was more than 1000 nM throughout.
On to `CNC(=O)CCc1c(-c2ccc(F)cc2)[nH]c2ccc(F)cc12` [Compound 73], for which the IC50 in assay [1] and in assay [2] was more than 1000 nM each time.
Regarding `C[C@H](CO)NC(=O)CCc1c(-c2ccc(F)cc2)[nH]c2c(F)cc(F)cc12` [Compound 120], the half-maximal inhibitory concentration (IC50) in assay [1] and in assay [2] was less than 250 nM throughout.
For `O=C(CCc1c(-c2ccc(F)cc2)[nH]c2c(F)cc(F)cc12)N[C@H]1CCOC1=O` [Compound 187], the half-inhibitory concentration (IC50) in assay [1] and in assay [2] was less than 250 nM in each case.
With `O=C(CCc1c(-c2ccc(F)cc2)[nH]c2c(F)cc(F)cc12)NC(CCO)C(=O)O` (stereo not drawn) [Compound 188], the IC50 in assay [1] was less than 250 nM; in assay [2] it was 250 to 1000 nM.
For the compound `CC(=O)NCC(F)(F)Cc1c(-c2ccc(F)cc2)[nH]c2c(F)cc(F)cc12` [Compound 515, N-[3-[5,7-difluoro-2-(4-fluorophenyl)-1H-indol-3-yl]-2,2-difluoro-propyl]acetamide], the 50% inhibitory concentration (IC50) in assay [1] and in assay [2] was 250 to 1000 nM throughout.
Take `Nc1ccnn1C(=O)CCc1c(-c2ccc(F)cc2)[nH]c2ccc(F)cc12` [Compound 6]: the half-inhibitory concentration (IC50) in assay [1] and in assay [2] was 250 to 1000 nM in each case.
On to `CN(CCNC(=O)OC(C)(C)C)C(=O)CCc1c(-c2ccc(F)cc2)[nH]c2ccc(F)cc12` [Compound 72], for which the 50% inhibitory concentration (IC50) in assay [1] and in assay [2] was more than 1000 nM each time.
As to `O=C(CCc1c(-c2ccc(F)cc2)[nH]c2c(F)cc(F)cc12)NC1CCCC1=O` (stereo not drawn) [Compound 101], the IC50 in assay [1] and in assay [2] was less than 250 nM throughout.
In the case of `O=C(CCc1c(-c2ccc(F)cc2)[nH]c2ccc(F)cc12)NCC(F)F` [Compound 24], the IC50 in assay [1] was 250 to 1000 nM; in assay [2], more than 1000 nM.
The like results for `Cc1cnc(NC(=O)CCc2c(-c3ccc(F)cc3)[nH]c3c(F)cc(F)cc23)o1` [Compound 172] were, in that order, more than 1000 nM and more than 1000 nM.
The like results for `Cc1cc(NC(=O)CCc2c(-c3ccc(F)cc3)[nH]c3c(F)cc(F)cc23)no1` [Compound 180] were, in that order, more than 1000 nM and more than 1000 nM.
The like results for `CC(C)(NC(=O)CCc1c(-c2ccc(F)cc2)[nH]c2c(F)cc(F)cc12)C(F)(F)F` [Compound 182] were, in that order, more than 1000 nM and more than 1000 nM.
Consider `O=C(CCc1c(-c2ccc(F)cc2)[nH]c2c(F)cc(F)cc12)NC(CO)CF` (stereo not drawn) [Compound 99], for which the concentration for half-maximal inhibition (IC50) in assay [1] and in assay [2] was less than 250 nM in each case.
For the compound `C[C@H](O)CNC(=O)CCc1c(-c2ccc(F)cc2)[nH]c2ccc(F)cc12` [Compound 78], the IC50 in assay [1] and in assay [2] was more than 1000 nM throughout.
In the case of `CCC(C)(CO)NC(=O)CCc1c(-c2ccc(F)cc2)[nH]c2ccc(F)cc12` (racemic) [Compound 62], the IC50 in assay [1] and in assay [2] was more than 1000 nM throughout.
For `O=C(CCc1c(-c2ccc(F)cc2)[nH]c2ccc(F)cc12)NCCO` [Compound 25], the 50% inhibitory concentration (IC50) in assay [1] and in assay [2] was more than 1000 nM each time.
Take `O=C(CCc1c(-c2ccc(F)cc2)[nH]c2c(F)cc(Br)cc12)N[C@@H](CO)C(F)(F)F` [Compound 229]: the values for the half-inhibitory concentration (IC50) in assay [1] and in assay [2] were 250 to 1000 nM and less than 250 nM, respectively.
The like results for `CC(C)C[C@@H](CO)NC(=O)CCc1c(-c2ccc(F)cc2)[nH]c2c(F)cc(F)cc12` [Compound 158] were, in that order, more than 1000 nM and more than 1000 nM.
For `O=C(CCc1c(-c2ccc(F)cc2)[nH]c2c(F)cc(F)cc12)N1CC[C@@H]1CO` [Compound 112], the figures for the half-maximal inhibitory concentration (IC50) in assay [1] and in assay [2] were more than 1000 nM and 250 to 1000 nM, respectively.
The like results for `O=C(CCc1c(-c2ccc(F)cc2)[nH]c2c(F)cc(F)cc12)NC1(CO)CC1` [Compound 131] were, in that order, less than 250 nM and less than 250 nM.
The like results for `CC(CO)(CO)NC(=O)CCc1c(-c2ccc(F)cc2)[nH]c2ccc(F)cc12` [Compound 18] were, in that order, 250 to 1000 nM and 250 to 1000 nM.
The like results for `CCC(C)(O)CNC(=O)CCc1c(-c2ccc(F)cc2)[nH]c2ccc(F)cc12` (stereo not drawn) [Compound 74] were, in that order, more than 1000 nM and more than 1000 nM.
As for `O=C(CCc1c(-c2ccc(F)cc2)[nH]c2c(F)cc(F)cc12)Nc1c[nH][nH]c1=O` [Compound 97], the half-inhibitory concentration (IC50) in assay [1] is 250 to 1000 nM; in assay [2] it was more than 1000 nM.
The like results for `O=C1CCC(NC(=O)CCc2c(-c3ccc(F)cc3)[nH]c3c(F)cc(F)cc23)C(=O)N1` (stereo not drawn) [Compound 190] were, in that order, more than 1000 nM and more than 1000 nM.
As for `O=C(CCc1c(-c2ccc(F)cc2)[nH]c2c(F)cc(F)cc12)NC1C(=O)Nc2ccc(F)cc21` (stereo not drawn) [Compound 139], the IC50 in assay [1] and in assay [2] was more than 1000 nM throughout.
Consider `CC(CNC(=O)OC(C)(C)C)NC(=O)CCc1c(-c2ccc(F)cc2)[nH]c2ccc(F)cc12` (racemic) [Compound 59], for which the IC50 in assay [1] and in assay [2] was more than 1000 nM throughout.
With `O=C(CCc1c(-c2ccc(F)cc2)[nH]c2ccc(F)cc12)N[C@H]1C[C@@H]1c1ccccc1` [Compound 23], the IC50 in assay [1] and in assay [2] was more than 1000 nM throughout.
Turning to `O=C(CCc1c(-c2ccc(F)cc2)[nH]c2ccc(F)cc12)NC1CC(F)(F)C1` [Compound 47], the IC50 was 250 to 1000 nM in assay [1] and more than 1000 nM in assay [2].
The like results for `CC[C@H](CO)NC(=O)CCc1c(-c2ccc(F)cc2)[nH]c2ccc(F)cc12` [Compound 89] were, in that order, 250 to 1000 nM and less than 250 nM.
The like results for `C[C@H](O)[C@H](CO)NC(=O)CCc1c(-c2ccc(F)cc2)[nH]c2ccc(F)cc12` [Compound 28] were, in that order, 250 to 1000 nM and more than 1000 nM.
In the case of `CC(C)C[C@H](CO)NC(=O)CCc1c(-c2ccc(F)cc2)[nH]c2c(F)cc(F)cc12` [Compound 192], the 50% inhibitory concentration (IC50) in assay [1] and in assay [2] was more than 1000 nM each time.
Regarding `N[C@H]1C[C@H](NC(=O)CCc2c(-c3ccc(F)cc3)[nH]c3ccc(F)cc23)C1` [Compound 54], the IC50 in assay [1] and in assay [2] was more than 1000 nM throughout.
For the compound `C[C@@H](O)CNC(=O)CCc1c(-c2ccc(F)cc2)[nH]c2ccc(F)cc12` [Compound 79], the half-maximal inhibitory concentration (IC50) in assay [1] and in assay [2] was more than 1000 nM in each case.
As to `NCCCCc1c(-c2ccc(F)cc2)[nH]c2c(F)cc(F)cc12` [Compound 511, 4-[5,7-difluoro-2-(4-fluorophenyl)-1H-indol-3-yl]butan-1-amine], the half-inhibitory concentration (IC50) in assay [1] and in assay [2] was less than 250 nM each time.
`Cc1ccc(CNC(=O)CCc2c(-c3ccc(F)cc3)[nH]c3c(F)cc(F)cc23)o1` [Compound 177]: the IC50 in assay [1] and in assay [2] was more than 1000 nM in each case.
For the compound `O=C(CCc1c(-c2ccc(F)cc2)[nH]c2c(F)cc(F)cc12)Nc1nccs1` [Compound 167], the IC50 in assay [1] and in assay [2] was more than 1000 nM each time.
Take `O=C(CCc1c(-c2ccc(F)cc2)[nH]c2c(F)cc(F)cc12)NCC1(CO)COC1` [Compound 140]: the IC50 in assay [1] and in assay [2] was more than 1000 nM in each case.

One may read the IC50 as the concentration that gives 50% inhibition.
